Results on 31 compounds are retold here after ChEMBL document CHEMBL1131824, “3-Alkyl-(5,5'-diphenyl)imidazolidineiones as new cannabinoid receptor ligands” (Bioorg Med Chem Lett, 1999).

Molecules are shown by their SMILES. The source made the active and inactive calls. The calls are words filed in the database; no cut-off is given here. Bounds are passed on as bounds.

Test [1] deals with T1, Cannabinoid receptor 1 (Homo sapiens, UniProt P21554). Kind of test: Displacement of [3H]-SR- 141716A binding to human CB1 receptor expressed in CHO cell membranes at the concentration of 10 uM.
T1 sequence (P21554 whole entry): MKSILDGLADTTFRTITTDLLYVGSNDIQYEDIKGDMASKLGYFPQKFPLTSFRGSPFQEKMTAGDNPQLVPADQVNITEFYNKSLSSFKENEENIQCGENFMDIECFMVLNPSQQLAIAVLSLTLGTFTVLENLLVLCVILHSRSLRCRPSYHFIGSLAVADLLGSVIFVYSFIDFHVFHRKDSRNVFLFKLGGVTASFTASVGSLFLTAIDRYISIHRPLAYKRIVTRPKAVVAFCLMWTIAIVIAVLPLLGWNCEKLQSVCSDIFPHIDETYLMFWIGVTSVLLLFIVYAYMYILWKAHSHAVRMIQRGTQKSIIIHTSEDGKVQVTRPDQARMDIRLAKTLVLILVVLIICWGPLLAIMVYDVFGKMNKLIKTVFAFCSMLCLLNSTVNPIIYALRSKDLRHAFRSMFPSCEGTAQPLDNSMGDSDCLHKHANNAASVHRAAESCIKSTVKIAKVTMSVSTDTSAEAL
The target in test [2] is T1, Cannabinoid receptor 1. Kind of test: Binding affinity for brain CBI receptor was determined.
Test [3] deals with T1, Cannabinoid receptor 1. Kind of test: Displacement of [3H]-SR- 141716A binding to human CB1 receptor expressed in CHO cell membranes at the concentration of 10 uM; Not significant. In general terms: In a radioligand displacement assay an active substance lowers the binding of a labelled ligand.
In test [4] the target is T1, Cannabinoid receptor 1. Kind of test: Displacement of [3H]-SR- 141716A binding to human CB1 receptor expressed in CHO cell membranes at the concentration of 1 uM.
In test [5] the target is T1, Cannabinoid receptor 1. Kind of test: Ability to displace [3H]-SR- 141716A binding to CB1 receptor expressed in CHO cell membrane. In kind it is cell membranes.
Test [6] deals with T1, Cannabinoid receptor 1. Description: biochemical. Type of test: cell-based, CHO.

Take `COc1ccc(C2(c3ccc(OC)cc3)NC(=O)N(CCN3CCOCC3)C2=O)cc1`: on Cannabinoid receptor 1 [1], the Displacement worked out at 21.7%.
Take `CCCCCCN1C(=O)NC(c2ccc(C)cc2)(c2ccc(C)cc2)C1=O`: the Displacement on Cannabinoid receptor 1 [1] came to 46.8%.
On Cannabinoid receptor 1 [1], `CCCCCCCCN1C(=O)NC(c2ccccc2)(c2ccccc2)C1=O` had a Displacement of 61.2%.
In turn, `O=C1NC(c2ccccc2)(c2ccccc2)C(=O)N1C1CC1` showed a Displacement on Cannabinoid receptor 1 [1] of less than 5%.
Broadly, the Ki is the equilibrium dissociation constant of an inhibitor or competing ligand from its target. Low values mean tighter binding, high ones weaker binding. In the case of `CCCCCn1ccc(C(=O)c2cccc3ccccc23)c1`, affinity on Cannabinoid receptor 1 [2] was put at a Ki of 87 nM.
Consider `CN(C)CCN1C(=O)NC(c2ccccc2)(c2ccccc2)C1=O`, for which the Displacement at Cannabinoid receptor 1 [1] was less than 5%.
The same measure, in the same setting: the same measure for `O=C1NC(c2ccccc2)(c2ccccc2)C(=O)N1CCN1CCOCC1`: less than 5%.
For `O=C1NC(c2ccccc2)(c2ccccc2)C(=O)N1CCN1CCCCC1`, the Displacement on Cannabinoid receptor 1 [1] is less than 15%.
Consider `O=C1NC(=O)C(c2ccc(F)cc2)(c2ccc(F)cc2)N1`, for which the Displacement result on Cannabinoid receptor 1 [3] is “inactive”.
Take `CCCCCCCN1C(=O)NC(c2ccc(C)cc2)(c2ccc(C)cc2)C1=O`: the Displacement on Cannabinoid receptor 1 [1] came to 51.3%.
`CCCCCCN1C(=O)NC(c2ccccc2)(c2ccccc2)C1=O`: at Cannabinoid receptor 1 [1], the Displacement came out at 35.6%.
`CCCCCCCCN1C(=O)NC(c2ccc(Br)cc2)(c2ccc(Br)cc2)C1=O`: the Displacement on Cannabinoid receptor 1 [1] was 80%; at Cannabinoid receptor 1 [4], 48.2%.
Turning to `CCCCN1C(=O)NC(c2ccccc2)(c2ccccc2)C1=O`, the Displacement at Cannabinoid receptor 1 [1] was determined as 25.1%.
Turning to `O=C1NC(c2ccc(Br)cc2)(c2ccc(Br)cc2)C(=O)N1CCN1CCOCC1`, the Displacement at Cannabinoid receptor 1 [1] worked out at 91.2%; on Cannabinoid receptor 1 [4], 54.1%. The compound further displayed a Ki on Cannabinoid receptor 1 [5] of 70.3 nM.
As to `CCCCCCN1C(=O)NC(c2ccc(Br)cc2)(c2ccc(Br)cc2)C1=O`, the Displacement on Cannabinoid receptor 1 [1] came out at 72.1%; at Cannabinoid receptor 1 [4], 30.2%.
`CCCCCCCN1C(=O)NC(c2ccc(Br)cc2)(c2ccc(Br)cc2)C1=O`: the results for the Displacement at Cannabinoid receptor 1 [1] and at Cannabinoid receptor 1 [4] were 89.2% and 51.5%, respectively. The inhibition constant (Ki) on Cannabinoid receptor 1 [5] worked out at 97.9 nM.
For `O=C1NC(=O)C(c2ccccc2)(c2ccccc2)N1`, the Displacement result on Cannabinoid receptor 1 [3] was “inactive”.
In the case of `Cc1ccc(C2(c3ccc(C)cc3)NC(=O)N(CCN3CCOCC3)C2=O)cc1`, the Displacement at Cannabinoid receptor 1 [1] was 23.9%.
In the case of `Cc1ccc(C2(c3ccc(C)cc3)NC(=O)NC2=O)cc1`, the Displacement result on Cannabinoid receptor 1 [3] is “inactive”.
For the compound `O=C1NC(=O)C(c2ccc(Br)cc2)(c2ccc(Br)cc2)N1`, the Displacement result on Cannabinoid receptor 1 [3] was “inactive”.
Take `CCCCCCCCN1C(=O)NC(c2ccc(F)cc2)(c2ccc(F)cc2)C1=O`: the values for the Displacement on Cannabinoid receptor 1 [1] and on Cannabinoid receptor 1 [4] were 62.5% and 15.3%, respectively.
Consider `CCCCCCN1C(=O)NC(c2ccc(F)cc2)(c2ccc(F)cc2)C1=O`, for which the Displacement on Cannabinoid receptor 1 [1] was 40.6%.
In the case of `CCCCCCN1C(=O)NC(c2ccc(OC)cc2)(c2ccc(OC)cc2)C1=O`, the Displacement on Cannabinoid receptor 1 [1] was found to be 66.6%; on Cannabinoid receptor 1 [4], 23%.
As for `CCCN1C(=O)NC(c2ccccc2)(c2ccccc2)C1=O`, the Displacement on Cannabinoid receptor 1 [1] was less than 20%.
On Cannabinoid receptor 1 [1], `O=C1NC(c2ccc(F)cc2)(c2ccc(F)cc2)C(=O)N1CCN1CCOCC1` registered a Displacement of 30.3%.
Consider `CCCCCCC(C)(C)c1cc(O)c2c(c1)OC(C)(C)[C@@H]1CCC(CO)C[C@@H]21` (stereo partly specified), for which the Ki on Cannabinoid receptor 1 [6] was found to be 0.82 nM.
On Cannabinoid receptor 1 [1], `O=C1NC(c2ccccc2)(c2ccccc2)C(=O)N1Cc1ccccc1` displayed a Displacement of 40.6%.
In turn, `CCCCCCCN1C(=O)NC(c2ccc(F)cc2)(c2ccc(F)cc2)C1=O` displayed a Displacement at Cannabinoid receptor 1 [1] of 51.4%.
The compound `CCCCCN1C(=O)NC(c2ccccc2)(c2ccccc2)C1=O` displayed a Displacement on Cannabinoid receptor 1 [1] of 35.4%.
In the case of `O=C1NC(c2ccc(Br)cc2)(c2ccc(Br)cc2)C(=O)N1CCCO`, the Displacement at Cannabinoid receptor 1 [1] worked out at 88.4%; at Cannabinoid receptor 1 [4] it was 50.2%. At Cannabinoid receptor 1 [5], this compound returned a Ki of 103 nM.
As for `COc1ccc(C2(c3ccc(OC)cc3)NC(=O)NC2=O)cc1`, on Cannabinoid receptor 1 [3], the Displacement result is “inactive”.
